Activity data for one compound are collected here from ChEMBL document CHEMBL1152889, “Melatonin: Quantum-chemical and biochemical investigation of antioxidant activity” (2009).

Experiment [1] has as its system Homo sapiens. The experiment can be described thus: Antioxidant activity against lipid peroxidation in chronic renal failure patient plasma assessed as malondialdehyde level at 2 mg/kg treated once day before night sleep measured after 1 month by thiobarbituric acid based spectrophotometry (Rvb=2.68 +/- 0.44 umol/L). It is filed as functional.
Experiment [2] relates to Homo sapiens. The experiment can be described thus: Antioxidant activity against lipid peroxidation in chronic renal failure patient plasma assessed as reduction in malondialdehyde level at 2 mg/kg treated once day before night sleep by thiobarbituric acid based spectrophotometry (Rvb=2.68 +/- 0.44 umol/L). It is filed as functional, organism-based. Also noted: dose 2 mg/kg. The following applies: TDE = time-dependent effect.

The test system of experiment [3] is Homo sapiens. Description: Antioxidant activity against lipid peroxidation in chronic renal failure patient plasma assessed as malondialdehyde level at 2 mg/kg treated once day before night sleep measured after 3 months by thiobarbituric acid based spectrophotometry (Rvb=2.68 +/- 0.44 umol/L). Type of experiment: functional.
Experiment [4] concerns Homo sapiens. Description: Antioxidant activity against lipid peroxidation in chronic renal failure patient plasma assessed as malondialdehyde level at 2 mg/kg treated once day before night sleep measured after 2 months by thiobarbituric acid based spectrophotometry (Rvb=2.68 +/- 0.44 umol/L). Type of experiment: functional.

For the compound `COc1ccc2[nH]cc(CCNC(C)=O)c2c1` [MELATONIN], the Activity in the experiment with Homo sapiens [1] was 4.02 µM; in the experiment with Homo sapiens [2], “tde”; in the experiment on Homo sapiens [3], 2.79 µM; in the experiment with Homo sapiens [4], 3.09 µM.
